In ChEMBL document CHEMBL4138146, “A Schmidt rearrangement-mediated synthesis of novel tetrahydro-benzo[1,4]diazepin-5-ones as potential anticancer and antiprotozoal agents” (Eur J Med Chem, 2017):

Experiments:
Format in all cases: functional
RPMI-8226 = assay: Growth inhibition of human RPMI8226 cells assessed as cell growth at 10 uM incubated for 48 hrs by sulforhodamine B assay relative to control; settings: RPMI-8226, 48 h, read-out: Activity
HOP-62 = assay: Growth inhibition of human HOP62 cells assessed as cell growth at 10 uM incubated for 48 hrs by sulforhodamine B assay relative to control; settings: HOP-62, 48 h, read-out: Activity
HOP-92 = assay: Growth inhibition of human HOP92 cells assessed as cell growth at 10 uM incubated for 48 hrs by sulforhodamine B assay relative to control; settings: HOP-92, 48 h, read-out: Activity
NCI-H226 = assay: Growth inhibition of human NCI-H226 cells assessed as cell growth at 10 uM incubated for 48 hrs by sulforhodamine B assay relative to control; settings: NCI-H226, 48 h, read-out: Activity
NCI-H23 = assay: Growth inhibition of human NCI-H23 cells assessed as cell growth at 10 uM incubated for 48 hrs by sulforhodamine B assay relative to control; settings: NCI-H23, 48 h, read-out: Activity
NCI-H322M = assay: Growth inhibition of human NCI-H322M cells assessed as cell growth at 10 uM incubated for 48 hrs by sulforhodamine B assay relative to control; settings: read-out: Activity
COLO 205 = assay: Growth inhibition of human COLO205 cells assessed as cell growth at 10 uM incubated for 48 hrs by sulforhodamine B assay relative to control; settings: COLO 205, 48 h, read-out: Activity
SF-268 = assay: Growth inhibition of human SF268 cells assessed as cell growth at 10 uM incubated for 48 hrs by sulforhodamine B assay relative to control; settings: SF-268, 48 h, read-out: Activity
SNB-75 = assay: Growth inhibition of human SNB75 cells assessed as cell growth at 10 uM incubated for 48 hrs by sulforhodamine B assay relative to control; settings: SNB-75, 48 h, read-out: Activity
U-251 = assay: Growth inhibition of human U251 cells assessed as cell growth at 10 uM incubated for 48 hrs by sulforhodamine B assay relative to control; settings: U-251, 48 h, read-out: Activity
LOX IMVI = assay: Growth inhibition of human LOXIMVI cells assessed as cell growth at 10 uM incubated for 48 hrs by sulforhodamine B assay relative to control; settings: read-out: Activity
Malme-3M = assay: Growth inhibition of human MALME-3M cells assessed as cell growth at 10 uM incubated for 48 hrs by sulforhodamine B assay relative to control; settings: read-out: Activity
M14 = assay: Growth inhibition of human M14 cells assessed as cell growth at 10 uM incubated for 48 hrs by sulforhodamine B assay relative to control; settings: M14, 48 h, read-out: Activity
MDA-MB-435 = assay: Growth inhibition of human MDA-MB-435 cells assessed as cell growth at 10 uM incubated for 48 hrs by sulforhodamine B assay relative to control; settings: MDA-MB-435, 48 h, read-out: Activity
SK-MEL-2 = assay: Growth inhibition of human SK-MEL-2 cells assessed as cell growth at 10 uM incubated for 48 hrs by sulforhodamine B assay relative to control; settings: SK-MEL-2, 48 h, read-out: Activity
SK-MEL-28 = assay: Growth inhibition of human SK-MEL-28 cells assessed as cell growth at 10 uM incubated for 48 hrs by sulforhodamine B assay relative to control; settings: SK-MEL-28, 48 h, read-out: Activity
SK-MEL-5 = assay: Growth inhibition of human SK-MEL-5 cells assessed as cell growth at 10 uM incubated for 48 hrs by sulforhodamine B assay relative to control; settings: SK-MEL-5, 48 h, read-out: Activity
OVCAR-3 = assay: Growth inhibition of human OVCAR3 cells assessed as cell growth at 10 uM incubated for 48 hrs by sulforhodamine B assay relative to control; settings: OVCAR-3, 48 h, read-out: Activity
OVCAR-4 = assay: Growth inhibition of human OVCAR4 cells assessed as cell growth at 10 uM incubated for 48 hrs by sulforhodamine B assay relative to control; settings: OVCAR-4, 48 h, read-out: Activity
NCI/ADR-RES = assay: Growth inhibition of human NCI/ADR-RES cells assessed as cell growth at 10 uM incubated for 48 hrs by sulforhodamine B assay relative to control; settings: read-out: Activity
SK-OV-3 = assay: Growth inhibition of human SKOV3 cells assessed as cell growth at 10 uM incubated for 48 hrs by sulforhodamine B assay relative to control; settings: SK-OV-3, 48 h, read-out: Activity
ACHN = assay: Growth inhibition of human ACHN cells assessed as cell growth at 10 uM incubated for 48 hrs by sulforhodamine B assay relative to control; settings: read-out: Activity
CAKI-1 = assay: Growth inhibition of human Caki1 cells assessed as cell growth at 10 uM incubated for 48 hrs by sulforhodamine B assay relative to control; settings: CAKI-1, 48 h, read-out: Activity
SN12C = assay: Growth inhibition of human SN12C cells assessed as cell growth at 10 uM incubated for 48 hrs by sulforhodamine B assay relative to control; settings: read-out: Activity
TK-10 = assay: Growth inhibition of human TK10 cells assessed as cell growth at 10 uM incubated for 48 hrs by sulforhodamine B assay relative to control; settings: TK-10, 48 h, read-out: Activity
UO-31 = assay: Growth inhibition of human UO31 cells assessed as cell growth at 10 uM incubated for 48 hrs by sulforhodamine B assay relative to control; settings: UO-31, 48 h, read-out: Activity
PC-3 = assay: Growth inhibition of human PC3 cells assessed as cell growth at 10 uM incubated for 48 hrs by sulforhodamine B assay relative to control; settings: PC-3, 48 h, read-out: Activity
DU-145 = assay: Growth inhibition of human DU145 cells assessed as cell growth at 10 uM incubated for 48 hrs by sulforhodamine B assay relative to control; settings: DU-145, 48 h, read-out: Activity
MDA-MB-231 = assay: Growth inhibition of human MDA-MB-231 cells assessed as cell growth at 10 uM incubated for 48 hrs by sulforhodamine B assay relative to control; settings: MDA-MB-231, 48 h, read-out: Activity
Hs-578T = assay: Growth inhibition of human Hs 578T cells assessed as cell growth at 10 uM incubated for 48 hrs by sulforhodamine B assay relative to control; settings: read-out: Activity
BT-549 = assay: Growth inhibition of human BT549 cells assessed as cell growth at 10 uM incubated for 48 hrs by sulforhodamine B assay relative to control; settings: BT-549, 48 h, read-out: Activity
T47D = assay: Growth inhibition of human T47D cells assessed as cell growth at 10 uM incubated for 48 hrs by sulforhodamine B assay relative to control; settings: read-out: Activity
MDA-MB-468 = assay: Growth inhibition of human MDA-MB-468 cells assessed as cell growth at 10 uM incubated for 48 hrs by sulforhodamine B assay relative to control; settings: MDA-MB-468, 48 h, read-out: Activity

SMILES | growth at 10 µM (RPMI-8226) | growth at 10 µM (HOP-62) | growth at 10 µM (HOP-92) | growth at 10 µM (NCI-H226) | growth at 10 µM (NCI-H23) | growth at 10 µM (NCI-H322M) | growth at 10 µM (COLO 205) | growth at 10 µM (SF-268) | growth at 10 µM (SNB-75) | growth at 10 µM (U-251) | growth at 10 µM (LOX IMVI) | growth at 10 µM (Malme-3M) | growth at 10 µM (M14) | growth at 10 µM (MDA-MB-435) | growth at 10 µM (SK-MEL-2) | growth at 10 µM (SK-MEL-28) | growth at 10 µM (SK-MEL-5) | growth at 10 µM (OVCAR-3) | growth at 10 µM (OVCAR-4) | growth at 10 µM (NCI/ADR-RES) | further results
CCCCn1c(=O)c(C2CNC(=O)c3ccccc3N2)cc2ccc(Cl)cc21 (centres undefined) | 103% | 94% | 95.9% | 99.6% | 93.5% | 95.7% | 89.6% | 105% | 90% | 102% | 86.3% | 103% | 92.6% | 103% | 99.6% | 108% | 97.9% | 112% | 97.8% | 101% | growth at 10 µM (SK-OV-3): 89.8%; growth at 10 µM (ACHN): 95.4%; growth at 10 µM (CAKI-1): 72.5%; growth at 10 µM (SN12C): 90.7%; growth at 10 µM (TK-10): 126%; growth at 10 µM (UO-31): 75.3%; growth at 10 µM (PC-3): 93%; growth at 10 µM (DU-145): 94.9%; growth at 10 µM (MDA-MB-231): 81.1%; growth at 10 µM (Hs-578T): 102%; growth at 10 µM (BT-549): 104%; growth at 10 µM (T47D): 93.6%; growth at 10 µM (MDA-MB-468): 99.8%
Cc1cccc2cc(C3CNC(=O)c4ccccc4N3)c(=O)[nH]c12 (centres undefined) | 114% | 89.6% | 94.9% | 85.6% | 98.4% | 92% | 108% | 99.6% | 86.5% | 94.5% | 94.3% | 96% | 98.4% | 106% | 96.9% | 102% | 102% | 104% | 92.1% | 103% | growth at 10 µM (SK-OV-3): 96.9%; growth at 10 µM (ACHN): 98.6%; growth at 10 µM (CAKI-1): 100%; growth at 10 µM (SN12C): 114%; growth at 10 µM (TK-10): 94.6%; growth at 10 µM (UO-31): 92.8%; growth at 10 µM (PC-3): 89.1%; growth at 10 µM (DU-145): 109%; growth at 10 µM (MDA-MB-231): 110%; growth at 10 µM (Hs-578T): 105%; growth at 10 µM (BT-549): 112%; growth at 10 µM (T47D): 93.1%; growth at 10 µM (MDA-MB-468): 107%
CCCCOc1nc2c(C)cccc2cc1C1CNC(=O)c2ccccc2N1 (centres undefined) | 57.5% | 56.2% | 62.6% | 89% | 80% | 105% | 90.8% | 66.9% | 56.6% | 63.7% | 60.8% | 86.1% | 54.7% | 4.51% | 62.9% | 66.4% | 43.4% | 20% | 71.7% | 51.3% | growth at 10 µM (SK-OV-3): 69.2%; growth at 10 µM (ACHN): 66.3%; growth at 10 µM (CAKI-1): 52.1%; growth at 10 µM (SN12C): 70.9%; growth at 10 µM (TK-10): 98.7%; growth at 10 µM (UO-31): 67.8%; growth at 10 µM (PC-3): 40.1%; growth at 10 µM (DU-145): 86%; growth at 10 µM (MDA-MB-231): 65.3%; growth at 10 µM (Hs-578T): 69.7%; growth at 10 µM (BT-549): 74.5%; growth at 10 µM (T47D): 58.4%; growth at 10 µM (MDA-MB-468): 51.6%
